According to US10626087B2, “Indoline and tetrahydroquinoline sulfonyl inhibitors of dimetalloenzymes and use of the same” (priority 2015, dated 2020):
Read-outs that look alike come from different tables or passages of the source.

Molecular target: NDM-1 (Klebsiella pneumoniae, UniProt C7C422)
Assay: Inhibition of NDM-1 assay (CHROMACEF hydrolysis, absorbance at 442 nm)
Assay type: biochemical
Conditions: for Activity w/100 uM [I]: enzyme activity with 100 uM inhibitor; for Activity w/200 uM [I]: enzyme activity with 200 uM inhibitor
Procedure: The ability of the compounds described herein to inhibit NDM-1 was determined in the following way.
A Substrate Working Solution was prepared from CRHROMACEF (6 μM) and Tween-20 (0.02% v/v) in water. An Enzyme Working Solution was prepared with NDM-1 (0.5 μg/mL), Hepes (0.1 M), pH 7 and Tween-20 (0.02% v/v). An Inhibitor Working Solution was prepared from 50 mM of the inhibitor in DMSO. The final assay conditions were 1 mL, Hepes (50 mM), pH 7, Tween-20 (0.02% v/v), CHROMACEF (3 uM), Δ35 NDM-1 (0.25 μg/mL). Extra zinc was omitted from these assays because extra ZnSO4 interferes with the metal binding groups in inhibitors.
[…] Supplemental DMSO was added to reach a final volume of 4 μL. NDM-1 Working Solution ([…]) was added to the cuvette and the inhibitor and enzyme were allowed to incubate for about 20 minutes. The reaction was initiated by added 0.5 mL Substrate Working Solution. The solution was mixed quickly, but gently to avoid bubble formation. […] to start the reaction. The reaction was mixed fast, but gently. The change in absorbance ΔΔAbs442nm/min was measured for each inhibitor from the linear slope from each inhibitor concentration.

[1] = *estimated or actual from a single point, target not given, values match the NDM-1 IC50 column, read-out: IC50 μM*
[2] = fitted IC50 with error, read-out: NDM-1 IC50

NDM-1, sequence (C7C422 36-270 limits assumed, looked up): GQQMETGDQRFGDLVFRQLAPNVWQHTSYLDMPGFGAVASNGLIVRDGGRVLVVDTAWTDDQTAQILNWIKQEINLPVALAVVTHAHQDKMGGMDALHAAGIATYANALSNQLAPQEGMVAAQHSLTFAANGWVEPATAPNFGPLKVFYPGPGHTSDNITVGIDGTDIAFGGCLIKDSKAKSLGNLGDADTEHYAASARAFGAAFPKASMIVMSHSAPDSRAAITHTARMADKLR

| Compound | IC50 [1] [µM] | inhibition at 5 µM [%] | inhibition at 50 µM (at 50 μM) [%] | other results |
| --- | --- | --- | --- | --- |
| O=C(O)c1ccc(CN2C(=O)c3ccccc3C2=O)cc1 | – | – | – | Activity w/100 uM [I]: 54%; Activity w/200 uM [I]: 38% |
| CC(=O)N1CCc2cc(Br)c(S(=O)(=O)n3cc(C4(O)CCCCC4)nn3)cc21 | – | – | – | Activity w/100 uM [I]: 53%; Activity w/200 uM [I]: 53% |
| CC(=O)N1CCc2cc(Cl)c(S(=O)(=O)/N=C(\N)CCO)cc21 | 1 | 78.3 | 99 | – |
| COC(=O)C/C(N)=N/S(=O)(=O)c1cc2c(cc1Br)CCN2C(C)=O | 2 | 77.8 | – | – |
| CC(=O)N1CCc2cc(Br)c(S(=O)(=O)/C=C(\N)CC(O)c3ccccc3)cc21 (stereo not drawn) | 2.6 | 75.4 | – | inhibition at 25 µM: 98.5%; IC50 [2]: 2.62 µM |
| CC(=O)N1CCc2cc(Cl)c(S(=O)(=O)/C=C(\N)CC(O)c3ccccc3)cc21 (stereo not drawn) | 3 | 58.4 | 96.9 | – |
| CC(=O)N1CCc2cc(Br)c(S(=O)(=O)/N=C(\N)CCO)cc21 | 9 | – | 90.3 | inhibition at 10 µM: 54% |
| CC(=O)N1CCc2cc(Br)c(S(=O)(=O)/N=C(\N)Cc3ccccn3)cc21 | 14 | – | 97 | inhibition at 10 µM: 42.9% |
| CN/C(CC(C)(C)O)=N\S(=O)(=O)c1cc2c(cc1Br)CCN2C(C)=O | 49 | – | 54.4 | – |
| CC(=O)N1CCc2cc(Br)c(S(=O)(=O)/N=C(\N)CC3(O)CCCC3)cc21 | 55 | – | 42 | inhibition at 200 µM: 64.6% |
| CC(=O)N1CCc2cc(Br)c(S(=O)(=O)/N=C(\N)CC3(O)CCCCC3)cc21 | 60 | – | 35 | – |
| CC(=O)N1CCc2cc(Cl)c(S(=O)(=O)/N=C(\N)CC(C)(C)O)cc21 | 80 | 19.9 | 32.7 | – |
| CC(=O)N1CCc2cc(Br)c(S(=O)(=O)NC(=O)CC(C)(C)O)cc21 | 8.7 | – | 93 | inhibition at 10 µM: 62.7%; IC50 [2]: 8.74 µM |
| CC(=O)N1CCc2cc(Cl)c(S(=O)(=O)NC(=O)CC(O)c3ccccc3)cc21 (stereo not drawn) | 100 | 15.5 | 31.9 | – |
| CC(=O)N1CCc2cc(Br)c(S(=O)(=O)NC(=O)CC(O)c3ccccc3)cc21 (stereo not drawn) | 100 | 8.1 | 28.8 | – |
| CC(=O)NS(=O)(=O)c1ccc2c(c1)N(C(C)=O)CC2 | 300 | – | 10 | inhibition at 200 µM: 34% |
| CC(=O)N1CCc2cc(F)c(S(=O)(=O)NC(=O)CC(O)c3ccccc3)cc21 (stereo not drawn) | – | – | 12.8 | NDM-1 % Inhibition (at 50 μM): 13.7% |
| CC(=O)NS(=O)(=O)c1cc2c(cc1Br)CCN2C(C)=O | – | – | – | inhibition at 500 µM (at 500 μM): 18% |
| CC(=O)N1CCc2cc(Br)c(S(=O)(=O)n3cc(C(C)O)nn3)cc21 (stereo not drawn) | 2.9 | 73.8 | – | inhibition at 25 µM: 95.1%; IC50 [2]: 2.91 µM |
| CC(=O)N1CCc2cc(Br)c(S(=O)(=O)n3cc(C(C)(C)O)nn3)cc21 | 100 | – | – | inhibition at 100 µM: 47%; inhibition at 200 µM: 47%; IC50 [2]: 100 µM |
| CC(=O)N1CCc2cc(Br)c(S(=O)(=O)n3cc(-c4ccccc4)nn3)cc21 | – | – | – | inhibition at 100 µM: 25% |
| CC(=O)N1CCc2cc(Br)c(S(=O)(=O)/N=C(\N)Cc3ccccc3)cc21 [MM-86] | – | – | – | Activity w/100 uM [I]: 63%; Activity w/200 uM [I]: 46% |
| CO/C(CC(C)(C)O)=N\S(=O)(=O)c1cc2c(cc1Br)CCN2C(C)=O [MM-94] | – | – | – | Activity w/100 uM [I]: 96%; Activity w/200 uM [I]: 35% |
| CC(=O)N1CCc2cc(Br)c(S(=O)(=O)/N=C(\N)CC(C)(C)O)cc21 [drawing 95] | – | – | – | Activity w/100 uM [I]: 26%; Activity w/200 uM [I]: 6.4% |
| CC(=O)N1CCc2cc(Br)c(S(=O)(=O)/N=C(\N)CC(C)(C)O)cc21 [drawing 104] | 22 | – | – | Ki: 6 µM; inhibition at 100 µM: 74%; inhibition at 200 µM: 93.6%; IC50 [2]: 22 µM |
| CC(=O)N1CCc2cc(Br)c(S(=O)(=O)/N=C(\N)Cc3ccccc3)cc21 [drawing 109] | 110 | – | – | inhibition at 100 µM: 55.5%; inhibition at 200 µM: 73.8%; IC50 [2]: 110 µM |
